# Reference: PubChem BioAssay AID743390 (Vanderbilt Specialized Chemistry Center, 2014)
# Biological target: Phospholipase D1 (Homo sapiens) (UniProt Q13393)
# Assay: phospholipase D1 enzyme inhibition confirmation – biochemical, concentration response (AID 743390)
# Conditions: purified human PLD1 enzyme activity assay
# Phospholipase D1 (Homo sapiens), sequence (Q13393 whole entry, looked up): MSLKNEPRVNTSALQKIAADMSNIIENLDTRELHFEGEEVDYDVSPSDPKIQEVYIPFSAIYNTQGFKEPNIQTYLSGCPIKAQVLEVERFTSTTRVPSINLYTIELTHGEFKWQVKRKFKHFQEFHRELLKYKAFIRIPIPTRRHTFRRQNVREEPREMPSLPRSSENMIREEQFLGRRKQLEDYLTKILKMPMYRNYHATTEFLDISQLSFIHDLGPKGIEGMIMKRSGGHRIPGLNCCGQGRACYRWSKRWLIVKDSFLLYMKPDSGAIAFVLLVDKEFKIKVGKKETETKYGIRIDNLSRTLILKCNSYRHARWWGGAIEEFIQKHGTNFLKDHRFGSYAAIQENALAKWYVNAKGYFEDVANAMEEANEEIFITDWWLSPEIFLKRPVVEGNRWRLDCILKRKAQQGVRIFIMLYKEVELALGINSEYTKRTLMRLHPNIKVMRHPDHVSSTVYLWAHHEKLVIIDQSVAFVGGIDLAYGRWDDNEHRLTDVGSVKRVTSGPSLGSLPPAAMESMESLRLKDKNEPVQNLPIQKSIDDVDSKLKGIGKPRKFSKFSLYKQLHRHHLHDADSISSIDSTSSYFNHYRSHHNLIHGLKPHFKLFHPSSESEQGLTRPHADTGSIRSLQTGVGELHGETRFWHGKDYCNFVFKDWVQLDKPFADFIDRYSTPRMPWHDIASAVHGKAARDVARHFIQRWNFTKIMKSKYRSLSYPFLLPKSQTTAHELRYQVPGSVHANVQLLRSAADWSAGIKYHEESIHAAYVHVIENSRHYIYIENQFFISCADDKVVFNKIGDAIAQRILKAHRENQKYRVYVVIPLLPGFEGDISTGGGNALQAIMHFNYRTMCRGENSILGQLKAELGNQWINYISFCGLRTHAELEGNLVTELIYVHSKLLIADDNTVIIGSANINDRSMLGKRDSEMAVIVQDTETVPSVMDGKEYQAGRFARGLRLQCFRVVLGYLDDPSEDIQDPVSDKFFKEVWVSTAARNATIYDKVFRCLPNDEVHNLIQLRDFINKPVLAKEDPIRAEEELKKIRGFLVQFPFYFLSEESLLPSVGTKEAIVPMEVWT
row,Compound,IC50
1,O=C(NCCN1CCC2(CC1)C(=O)NCN2Cc1cccnc1)c1ccc2ccccc2c1,20 µM
2,O=C(NCCN1CCC2(CC1)C(=O)NCN2Cc1cccnc1)c1cc2ccccc2o1,20 µM
